Measurements from US20260144266A1, “METHODS OF TREATING PLANT-BASED PRODUCTS TO REDUCE MICROBE PROLIFERATION AND EXTEND SHELF LIFE” (Ascribe Bioscience Inc., priority 2022, published 2026).

System: Store-bought Strawberries
Test: Strawberry shelf-life / spoilage test after ascaroside treatment
Conditions: berries dipped into 100 nM water solution
Procedure: Example 1: treatment of fruit with ascarosides extends shelf-life/delays spoilage. Store-bought Strawberries were treated with ascaroside (ascr #18) by dipping the berries into a 100 nM water solution of the ascaroside or a mock solution lacking ascaroside. Five berries from each treatment group were placed in glass dishes and left uncovered on a table indoors at ambient temperature and monitored for one week. Fruit weight was measured at 0, 1, 3, 4, 5, 6, and 7 days post-treatment. The ascaroside treated berries retained approximately 25% more of their original mass than the untreated group indicating a reduced spoilage rate and potential for increased shelf life. […] Example 2: treatment of fruit with coating compositions containing ascarosides. Freshly harvested, non-coated, apples were obtained from a supermarket. These were washed and experimental coatings were applied.

**Q.** Which results are given for `CC1OC(O[C@H](C)CCCCCCCCC(=O)O)C(O)CC1O` (some centres unmarked) [ascr #18]?
**A.** fruit quality by appearance (photographs, FIG. 1b) (photographs 0, 3 and 5 days post-treatment, vs untreated fruit): maintained higher quality than the untreated fruit; original mass retained, more than the untreated group (normalized fruit mass, FIG. 1a) (uncovered at ambient temperature, monitored for seven days, vs mock solution): approximately 25%
